Patent US5104889A, “Thiazole derivatives” (Otsuka Pharmaceutical Factory, Inc., priority 1986, dated 1992)
≈ marks a conversion by molar mass, not a printed value.

System: fetal bovine heart-derived endothelial cells (FBHE cells)
Assay: Angiogenesis inhibiting activity test: inhibition of proliferation of cultured FBHE cells (neutral red uptake, 3 days)
Format: cell-based
Conditions: for IC50: Bos taurus, Endothelial cell, 3 days incubation, 10% FBS-added DME, 0.05% DMSO; for IC50 / FGF-/FGF+ ratio: FBHE cells; for FGF-/FGF+ ratio: ratio of IC50 without FGF to IC50 with FGF, 4320 min
Protocol: For use in this test, FBHE cells purchased from the ATCC were maintained by subculturing in a medium prepared by adding 20 ng/ml of fibroblast growth factor (FGF; Collaborative Research) to Dulbecco's modified Eagle's medium (DME; Nissui Seiyaku) supplemented with 10% fetal bovine serum (FBS). From two days before the start of the experiment, the addition of FGF was omitted and FBHE cells were cultured in DME with 10% FBS alone added. At the start of the experiment, the culture medium was removed, phosphate-buffered saline solution (PBS^(-); Nissui Seiyaku) was added instead, and cells were rinsed lightly. Then the PBS^(-) was removed, an adequate amount of 0.1% EDTA-0.2% trypsin solution was added and, after light rinsing, removed, and cells were stripped off. After addition of 10% FBS-added DME and sufficient pipetting, the cells stripped off were transferred to a centrifugal tube and centrifuged for washing (1,200 rpm, 5 minutes). The viable cell count was determined using a hemocytometer with the number of dead cells stained with trypan blue being substracted. The cell concentration was adjusted to 3×10^3 cells/well using 10% FBS-added DME. A cell suspension was thus prepared. […] For attaining test substance concentrations, serial double dilution was performed starting with 10 μg/ml. The following procedure was followed. Thus, to each well of 96-well Multiplates (Corning), there was added 50 μl of DME containing 10% FBS. Then, 50 μl of each test substance solution having the highest final concentration of 10 μg/ml was added to the well for the highest concentration and then serial dilution was carried out on each plate. Furthermore, 50 μl of FGF (5 ng/ml at maximum) was added to each well, followed by final addition of 100 μl of the cell suspension. The plates prepared by the above procedure were incubated in a carbon dioxide gas incubator for 3 days. After 3 days of incubation, neutral red was added to each well and the cells were allowed to take up the dye by 2 hours incubation in a carbon dioxide gas incubator. Thereafter, the cells were rinsed twice with PBS^(-) or physiological saline. Finally, 100 μl of acid alcohol (a 1:1 mixed solution prepared from 0.1 M aqueous monosodium phosphate solution and ethanol) was added to each well for dissolution thereinto of the dye taken up, and the absorbance of the resultant dye solution was determined using an absorptiometer. The absorbance values measured by the above procedure (3) for each dilution of each test substance with addition of FGF and without addition of FGF (normal condition) were plotted on a graph paper, and the test substance concentration required for 50% inhibition of the proliferation of cultured FBHE cells was determined from the graph obtained and expressed as an IC50 value.

[1] = 72 h, with addition of FGF (5 ng/ml at maximum)
[2] = 72 h, without addition of FGF (normal condition)

SMILES	IC50 [1] [µg/mL]	IC50 [2] [µg/mL]	FGF-/FGF+ ratio	IC50 FGF- (72 h) [µg/mL]
CC(C)(C)c1cc(Nc2nccs2)cc(C(C)(C)C)c1O [Example 2, 2,6-Di-tert-butyl-4-[(2-thiazolyl)amino]phenol]	0.89 (≈ 2.92 µM)	10.7 (≈ 35.1 µM)	12.0	
CCCCCc1sc(Nc2cc(C(C)(C)C)c(O)c(C(C)(C)C)c2)nc1C [Example 6]	2.18 (≈ 5.61 µM)	9.21 (≈ 23.7 µM)	4.2	
Cc1nc(Nc2cc(C(C)(C)C)c(O)c(C(C)(C)C)c2)sc1C [Example 11, 2,6-Di-tert-butyl-4-[(4,5-dimethyl-2-thiazolyl)amino]phenol]	6.14 (≈ 18.5 µM)		4.2	25.94 (≈ 78 µM)
CCSc1sc(Nc2cc(C(C)(C)C)c(O)c(C(C)(C)C)c2)nc1C [Example 12, 2,6-Di-tert-butyl-4-[(4-methyl-5-ethylthio-2-thiazolyl)amino]phenol]	1.55 (≈ 4.09 µM)	6.53 (≈ 17.2 µM)	4.2	
CCOC(=O)c1sc(Nc2cc(C(C)(C)C)c(O)c(C(C)(C)C)c2)nc1C [Example 18, 2,6-Di-tert-butyl-4-[(4-methyl-5-ethoxycarbonyl-2-thiazolyl)amino]phenol]	1.92 (≈ 4.92 µM)	11.9 (≈ 30.5 µM)	6.2	
CC(C)(C)c1cc(Nc2nc(CO)cs2)cc(C(C)(C)C)c1O.Cl.Cl [Example 25, 2,6-di-tert-butyl-4-[(4-hydroxymethyl-2-thiazolyl)amino]phenol dihydrochlo ride]	0.92	5.76	6.3	
CC(C)(C)c1cc(Nc2nc(C(=O)NN)cs2)cc(C(C)(C)C)c1O [Example 35, 2,6-di-di-tert-butyl-4-[(4-carbazoyl-2-thiazolyl)amino]phenol]	0.61 (≈ 1.68 µM)	3.66 (≈ 10.1 µM)	6.0	
CCOC(=O)c1csc(Oc2cc(C(C)(C)C)c(O)c(C(C)(C)C)c2)n1 [Example 40, 2,6-di-tert-butyl-4-[(4-ethoxycarbonyl-2-thiazolyl)oxy]phenol]	0.74 (≈ 1.96 µM)	5.72 (≈ 15.2 µM)	7.7	
CC(C)(C)c1cc(Sc2nccs2)cc(C(C)(C)C)c1O [Example 42, 2,6-Di-tert-butyl-4-(2-thiazolylthio)phenol]	1.85 (≈ 5.75 µM)	8.71 (≈ 27.1 µM)	4.7	
